# Reference: patent publication US20210395680A1, “COMPOSITION AND KIT FOR DIFFERENTIATION OF STEM CELLS INTO NEURAL PROGENITOR CELLS, AND METHOD USING SAME” (CHA UNIVERSITY INDUSTRY-ACADEMIC COOPERATION FOUNDATION, priority 2018, published 2021)
# Assays:
# CHA15-hESC = assay: Differentiation of CHA15-hESC into neural progenitor cells; SOX1/P75 flow cytometry; assay type: cell-based, human; conditions: defined medium 1 including PKC inhibitor and BMP inhibitor; total of 9 days
# Description: (§1) The obtained colonies were finely chopped and suspension-cultured under conditions of 37° C. and 5% CO2 in a defined medium 1 containing 5 […] of a PKC inhibitor and 0.5 μM of a BMP inhibitor for about 4 days to prepare embryoid bodies (EBs). The defined medium 1 included DMEM/F12 (Life Technologies), 10 μg/ml of insulin (Sigma-Aldrich), 9 μg/ml of transferrin (Sigma-Aldrich), and 14 ng/ml of sodium selenite (Sigma-Aldrich). 3-(1-(3-Imidazol-1-yl propyl)-1H-indol-3-yl)-4-anilino-1H-pyrrole-2,5-dione) (PKC-beta inhibitor) (Millipore) was used as the PKC inhibitor. DMH1 (dorsomorphin homolog 1) (Tocris Bioscience, USA) which is a compound inhibiting BMP 1 type receptor was used as the BMP inhibitor. As a negative control, dimethyl sulfoxide (DMSO) (Sigma-Aldrich) was used instead of the drug.
# (§2) EBs, which are round cell masses produced by suspension culture (defined medium 1) for about 4 days, were finely chopped, and then adhered to the bottom of the culture plate, followed by adherent culture for about 5 days (DMEM-F12, 1×N2 supplement, 25 μg/ml of insulin, 20 ng/ml of bFGF, and a matrigel-coated culture plate were used). Microscopic images of EBs obtained by suspension culture for about 4 days, and cells forming rossettes obtained by adherent culture for about 5 days are shown in FIG. 1B (left: embryoid bodies, right: cells forming rosettes). […]
# CHA6-hESC = assay: Differentiation of CHA6-hESC into neural progenitor cells; SOX1/P75 flow cytometry; assay type: cell-based, human; conditions: defined medium 1 including PKC inhibitor and BMP inhibitor; total of 9 days
# Description: as §1, §2
# [1] = system: H9 human embryonic stem cells (hESCs); assay: Differentiation of H9 hESCs into neural progenitor cells via embryoid bodies; SOX1/P75 flow cytometry; assay type: cell-based
# Description: Colonies obtained by culturing H9 human embryonic stem cells (hESCs) (WiCell Research Institute, Inc. Madison, Wis., U.S.A.) in a culture medium were dissociated into single cells using accutase (Life Technologies).
# The cells dissociated into single cells were seeded in a culture plate coated with a protein such as vitronectin (VTN) (vitronectin XF, STEMCELL Technologies), laminine (rhLaminin-521, Thermo Fisher Scientific Inc., Waltham, Mass., USA), fibronectin (Thermo Fisher Scientific Inc.), or Matrigel™ (StemCell Technologies, Inc.). An embryonic stem cell (ESC) culture medium was added to the seeded cells to perform undifferentiation culture. As the ESC culture medium, Essential 8 (E8) medium (StemCell Technologies Inc.), TeSR2 medium (StemCell Technologies Inc), StemMACS (Miltenyi Biotec, Bergisch Gladbach, Germany), etc. was used.
# as §1
# EBs, which are round cell masses produced by suspension culture (defined medium 1) for about 4 days, were finely chopped, and then adhered to the bottom of the culture plate, followed by adherent culture for about 5 days (DMEM-F12, 1×N2 supplement, 25 μg/ml of insulin, 20 ng/ml of bFGF, and a matrigel-coated culture plate were used). Microscopic images of EBs obtained by suspension culture for about 4 days, and cells forming rossettes obtained by adherent culture for about 5 days are shown in FIG. 1B (left: embryoid bodies, right: cells forming rosettes).
# 2% (v/v) paraformaldehyde (Sigma-Aldrich) was added to cells cultured for a total of 9 days (suspension culture for 4 days+adherent culture for 5 days), and allowed to react at room temperature for about 10 minutes to fix the cells. 2% (v/v) normal serum/1×PBS (Vector Laboratories, Inc., Burlingame, Calif.) containing 0.1% (v/v) TRITON™ X-100 (Sigma-Aldrich) was added to the cells, and allowed to react at room temperature for 30 minutes to block the fixation. To analyze a proportion of cells expressing SOX1 which is a neural progenitor cell (NPC) marker or P75 protein which is a neural crest stem cell (NCSC) marker, immunostaining was performed using phycoerythrin (PE)-labeled anti-P75 monoclonal antibody (1:50 dilution) (Miltenyi Biotec), and phycoerythrin (PE)-labeled anti-Sox1 monoclonal antibody (1:100 dilution) (BD Biosciences). The immunostained cells were subjected to flow cytometry using a BD FACSCalibur flow cytometer (BD Biosciences, Sparks, Md., USA).
# H9-hESCs were cultured by the method of differentiating via embryoid bodies as in Example 1.1(1). However, a defined medium 2 described below was used instead of the defined medium 1 used in Example 1.1(1).
# The defined medium 2 was prepared by mixing knockout DMEM (Invitrogen), 20% (v/v) knockout serum replacement (KSR, Invitrogen), 2 mM L-glutamine (invitrogen), 1% (w/v) penicillin/streptomycin (Invitrogen), and 0.1 mM β-mercaptoethanol (Invitrogen).
# H9-hESCs were cultured by the method of differentiating via embryoid bodies as in Example 1(1). However, a defined medium 3 was used instead of the defined medium 1 used in Example 1(1). The defined medium 3 was prepared by mixing DMEM/F12 (Invitrogen) and N2 supplement (Invitrogen). […]
# [2] = system: H9 human embryonic stem cells (hESCs); assay: as above; assay type: cell-based; remark: listed apart in the source
# [3] = system: induced pluripotent stem cell line (iPS cell #3); assay: Differentiation of induced pluripotent stem cell line (iPS cell #3) into neural progenitor cells; SOX1/P75 flow cytometry; assay type: cell-based, human; conditions: defined medium 1 including PKC inhibitor and BMP inhibitor; total of 9 days
# Description: as §1, §2
# [4] = defined medium 2 including PKC inhibitor and BMP inhibitor
# [5] = defined medium 3 including PKC inhibitor and BMP inhibitor
Compound,differentiation into NPCs (CHA15-hESC),differentiation into NPCs (CHA6-hESC),"cells expressing SOX1 (NPC marker) ([1]; defined medium 1, 5 μg/ml PKC inhibitor + 0.5 μM DMH1, suspension culture 4 days + adherent culture 5 days)","number of cells expressing P75 (neural crest stem cell marker) ([1]; defined medium 1, 5 μg/ml PKC inhibitor + 0.5 μM DMH1, total of 9 days culture)",differentiation into NPC ([1]; defined medium 1 including PKC inhibitor and DMH1),"differentiation into NPCs [1, 4]","number of cells expressing P75 (neural crest stem cell marker) [1, 4]","cells expressing SOX1 (NPC marker) ([1]; defined medium 2 including PKC inhibitor and BMP inhibitor, 4 days suspension + 5 days adherent)","differentiation into NPCs [1, 5]","number of cells expressing P75 (neural crest stem cell marker) [1, 5]","cells expressing SOX1 (NPC marker) ([1]; defined medium 3 including PKC inhibitor and BMP inhibitor, 4 days suspension + 5 days adherent)","differentiation into SOX1-expressing NPCs ([2]; defined medium 1, 5 μM PKC inhibitor + 0.25 μM to 5 μM DMH1)","differentiation into P75-expressing neural crest stem cells ([2]; defined medium 2, 5 μM PKC inhibitor + 0 μM to 0.5 μM DMH1)","differentiation into SOX1-expressing NPCs ([2]; defined medium 2, 5 μM PKC inhibitor + 5 μM DMH1)",differentiation into NPCs [3],"differentiation into P75-expressing neural crest stem cells ([2]; defined medium 1, only 5 μM PKC inhibitor without DMH1)"
"CC(C)Oc1ccc(-c2cnc3c(-c4ccnc5ccccc45)cnn3c2)cc1 [DMH1, 4-[6-[4-(1-methylethoxy)phenyl]pyrazolo[1,5-a]pyrimidin-3-yl]-quinoline]",differentiation into NPCs is induced,differentiation into NPCs is induced,most of the cultured cells expressed SOX1,small,differentiation into NPC is induced,differentiation into NPCs is induced,relatively very small,most of the cultured cells expressed SOX1,differentiation into NPCs is induced,relatively very small,most of the cultured cells expressed SOX1,≥ 96%,≥ 84%,≥ 96%,differentiation into NPCs is induced,
O=C1NC(=O)C(c2cn(CCCn3ccnc3)c3ccccc23)=C1Nc1ccccc1 [PKC inhibitor],,,,,,,,,,,,,,,,≥ 87%
